Among the data in patent publication US20250034159A1, “INHIBITORS OF EPIDERMAL GROWTH FACTOR RECEPTOR” (ORIC Pharmaceuticals, Inc., priority 2021, published 2025) are IC50 values, retold here.

Bounds are passed on as bounds.

Experiment [1] deals with recombinant human EGFR L858R/C797S double mutant protein (Homo sapiens (Human), UniProt P00533, C797S/L858R). Put plainly: Biological Activity Assay B: biochemical assay against EGFR L858R/C797S protein (EGFR LR/CS). The procedure:
In Row A of a 384-well polypropylene plate, was added 48 μL of DMSO. In wells A1 and A24, were added 12 μL of DMSO. […] To a well in Row A were added 12 μL of each 10 mM test compound stock (100% DMSO). […] The final intermediate dilution plate contained 4×16-point compound serial dilutions in assay buffer. The DMSO concentration was 10%. The intermediate compound dilution plate was transferred to the Bravo and the “5 uL dispense into ARP.pro” protocol was run. To the black low volume assay ready plates, were added 5 μL of 40 uM Phosphosens peptide sensor/4 mM ATP working solution to each well. […] To column 24, was added 10 μL of assay buffer. The final DMSO concentration was 2.5%. […] The plates were sealed with the TopSeal-A Plus plate seals. […] Set for 90 cycles with 120 second interval. […] The slope of each curve was constructed using Dotmatics in each well, and each IC50s was calculated using a 4-parameter fit model.

For experiment [2], the target named is recombinant human EGFR exon 19 deletion/C797S double mutant protein (Homo sapiens (Human), UniProt P00533, C797S/DEL746-750). Briefly: Biological Activity Assay C: biochemical assay against EGFR exon 19 deletion/C797S protein (EGFR d19/CS). The procedure, abridged:
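Compounds were tested as 16-point serial dilutions (final DMSO 2.5%) with a Phosphosens peptide sensor/ATP working solution (40 uM/4 mM). The signal was read kinetically over 90 cycles at 120 s intervals. IC50s came from 4-parameter fits of per-well slopes.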

Experiment [3] relates to Ba/F3_EGFR WT cells. Briefly: Biological Activity Assay D: BaF3 cell proliferation assay, EGFR wild-type (BaF3 WT). The experiment is classed as cell-based. The following applies: Ba/F3 EGFR; Ba/F3_EGFR WT cells, ~72 hours, CellTiter-Glo; read-out: BaF3 WT IC50. A general note: ATP-based viability assays read luminescence as a measure of living cells.
Experiment [4] concerns BaF3_EGFR LR/CS cells. Put plainly: Biological Activity Assay D: BaF3 cell proliferation assay, EGFR L858R/C797S mutant (BaF3 LR/CS). The experiment is classed as cell-based. The note with it: Ba/F3 EGFR; BaF3_EGFR LR/CS cells, ~72 hours, CellTiter-Glo; read-out: BaF3 LR/CS IC50.
Experiment [5] has as its system BaF3_EGFR d19/CS cells. Put plainly: Biological Activity Assay D: BaF3 cell proliferation assay, EGFR exon 19 deletion/C797S (BaF3 d19/CS). The experiment is classed as cell-based. The following applies: Ba/F3 EGFR; BaF3_EGFR d19/CS cells, ~72 hours, CellTiter-Glo; read-out: BaF3 d19/CS IC50.

Sequence of recombinant human EGFR exon 19 deletion/C797S double mutant protein (P00533 other isoform, or with tags, fused parts or gaps C797S/del 1-668/del 746-750 limits assumed): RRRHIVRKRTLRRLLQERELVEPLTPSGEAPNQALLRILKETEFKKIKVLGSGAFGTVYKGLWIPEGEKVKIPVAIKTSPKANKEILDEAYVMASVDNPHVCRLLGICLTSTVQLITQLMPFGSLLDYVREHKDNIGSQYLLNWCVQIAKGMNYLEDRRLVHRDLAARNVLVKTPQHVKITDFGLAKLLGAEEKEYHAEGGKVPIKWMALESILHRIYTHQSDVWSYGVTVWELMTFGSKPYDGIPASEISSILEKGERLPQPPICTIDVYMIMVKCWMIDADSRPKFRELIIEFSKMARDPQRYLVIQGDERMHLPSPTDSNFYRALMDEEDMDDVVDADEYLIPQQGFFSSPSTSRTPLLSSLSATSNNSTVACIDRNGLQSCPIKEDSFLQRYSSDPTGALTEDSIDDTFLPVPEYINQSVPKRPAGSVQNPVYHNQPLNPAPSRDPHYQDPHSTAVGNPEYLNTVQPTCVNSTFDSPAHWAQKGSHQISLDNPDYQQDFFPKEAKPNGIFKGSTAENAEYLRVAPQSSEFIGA
Sequence of recombinant human EGFR L858R/C797S double mutant protein (P00533 25-1210 C797S/L858R): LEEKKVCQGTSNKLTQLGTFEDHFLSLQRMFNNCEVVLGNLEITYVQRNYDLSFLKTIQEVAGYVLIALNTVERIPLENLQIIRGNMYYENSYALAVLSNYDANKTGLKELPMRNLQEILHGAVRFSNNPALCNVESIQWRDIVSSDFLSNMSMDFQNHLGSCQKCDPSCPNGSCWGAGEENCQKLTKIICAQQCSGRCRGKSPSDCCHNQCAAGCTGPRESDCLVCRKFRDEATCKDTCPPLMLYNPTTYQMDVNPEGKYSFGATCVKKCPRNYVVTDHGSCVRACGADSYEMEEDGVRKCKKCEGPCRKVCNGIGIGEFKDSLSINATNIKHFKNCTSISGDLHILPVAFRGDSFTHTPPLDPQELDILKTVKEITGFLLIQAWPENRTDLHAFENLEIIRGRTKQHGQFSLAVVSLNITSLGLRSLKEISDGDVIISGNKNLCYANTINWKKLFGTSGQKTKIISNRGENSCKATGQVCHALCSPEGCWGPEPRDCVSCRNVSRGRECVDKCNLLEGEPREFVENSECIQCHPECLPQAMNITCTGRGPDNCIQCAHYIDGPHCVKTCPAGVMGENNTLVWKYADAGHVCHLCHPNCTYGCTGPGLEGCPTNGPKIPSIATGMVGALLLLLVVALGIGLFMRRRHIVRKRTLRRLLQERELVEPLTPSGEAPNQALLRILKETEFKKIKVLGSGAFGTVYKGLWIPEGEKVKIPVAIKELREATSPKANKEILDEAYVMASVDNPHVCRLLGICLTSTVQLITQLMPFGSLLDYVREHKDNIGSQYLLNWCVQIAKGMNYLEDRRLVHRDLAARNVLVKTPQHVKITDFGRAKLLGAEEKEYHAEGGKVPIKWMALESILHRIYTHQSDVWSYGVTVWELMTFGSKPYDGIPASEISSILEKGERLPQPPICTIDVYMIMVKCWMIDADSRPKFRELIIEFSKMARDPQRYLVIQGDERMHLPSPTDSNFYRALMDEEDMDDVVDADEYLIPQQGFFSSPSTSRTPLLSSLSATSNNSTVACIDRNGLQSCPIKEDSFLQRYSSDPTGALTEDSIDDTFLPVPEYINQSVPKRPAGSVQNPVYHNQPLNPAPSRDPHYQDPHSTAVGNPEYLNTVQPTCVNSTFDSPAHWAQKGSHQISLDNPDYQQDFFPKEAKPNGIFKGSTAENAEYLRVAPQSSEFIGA

In the case of `O=S1(=O)CCC(Cn2cc(-c3ncnc4oc(-c5ccccc5)cc34)c(-c3ccc(F)cc3)n2)C1` (racemic) [Example 53, 3-{[3-(4-fluorophenyl)-4-(6-phenylfuro[2,3-d]pyrimidin-4-yl)-1H-pyrazol-1-yl]methyl}-1λ6-thiolane-1,1-dione], the IC50 in experiment [1] is 0.462 nM; in experiment [2], 0.538 nM; in experiment [3], 2130 nM; in experiment [4] it was 122 nM; in experiment [5], 40.8 nM.
On to `Fc1ccc(-c2nn(C3CCOC3)cc2-c2ncnc3oc(-c4ccccc4)cc23)cc1` (racemic) [Example 85, 4-[3-(4-Fluorophenyl)-1-(oxolan-3-yl)-1H-pyrazol-4-yl]-6-phenylfuro[2,3-d]pyrimidine], for which the IC50 in experiment [1] turned out to be 0.58 nM; in experiment [2], 0.39 nM; in experiment [3] it was 1860 nM; in experiment [4] it was 27.5 nM; in experiment [5] it was 33.8 nM.
The like results for `CS(=O)(=O)N1CCC(n2cc(-c3ncnc4oc(-c5ccccc5)cc34)c(-c3ccc(F)cc3)n2)C1` (racemic) [Example 89, 4-{3-(4-fluorophenyl)-1-[1-(methanesulfonyl)pyrrolidin-3-yl]-1H-pyrazol-4-yl}-6-phenylfuro[2,3-d]pyrimidine] were, in that order, 0.38 nM, 0.3 nM, 373 nM, 19.9 nM and 20.4 nM.
Turning to `O=S1(=O)CCCC(Cn2cc(-c3ncnc4oc(-c5ccccc5)cc34)c(-c3ccc(F)cc3)n2)C1` (racemic) [Example 115, 3-{[3-(4-Fluorophenyl)-4-(6-phenylfuro[2,3-d]pyrimidin-4-yl)-1H-pyrazol-1-yl]methyl}-1λ6-thiane-1,1-dione], the IC50 in experiment [1] came to 0.41 nM; in experiment [2], 0.31 nM; in experiment [3], 703 nM; in experiment [4], 31.6 nM; in experiment [5], 110 nM.
Consider `O=S1(=O)CC[C@@H](n2cc(-c3ncnc4oc(-c5ccccc5)cc34)c(-c3ccc(F)cc3)n2)C1` (single isomer, unassigned) [Example 72], for which the IC50 in experiment [1] was 0.65 nM; in experiment [2] it was 0.36 nM; in experiment [3], 1340 nM; in experiment [4], 26.1 nM; in experiment [5], 24.2 nM.
The like results for `O=S1(=O)CC[C@H](n2cc(-c3ncnc4oc(-c5ccccc5)cc34)c(-c3ccc(F)cc3)n2)C1` (single isomer, unassigned) [Example 73] were, in that order, 0.77 nM, 0.48 nM, 2490 nM, 80.9 nM and 56 nM.
On the same counts, the results for `Fc1ccc(-c2nn([C@@H]3CCOC3)cc2-c2ncnc3oc(-c4ccccc4)cc23)cc1` (single isomer, unassigned) [Example 90] are 0.51 nM, 0.24 nM, 1510 nM, 36.2 nM and 64.9 nM.
The like results for `Fc1ccc(-c2nn([C@H]3CCOC3)cc2-c2ncnc3oc(-c4ccccc4)cc23)cc1` (single isomer, unassigned) [Example 91] were, in that order, 0.37 nM, 0.23 nM, 1280 nM, 23.8 nM and 39.9 nM.
As for `O=S1(=O)CC[C@H](Cn2cc(-c3ncnc4oc(-c5ccccc5)cc34)c(-c3ccc(F)cc3)n2)C1` (single isomer, unassigned) [Example 96], the IC50 in experiment [1] was 0.39 nM; in experiment [2], 0.62 nM; in experiment [3], 1480 nM; in experiment [4], 73.8 nM; in experiment [5], 150 nM.
As to `O=S1(=O)CC[C@@H](Cn2cc(-c3ncnc4oc(-c5ccccc5)cc34)c(-c3ccc(F)cc3)n2)C1` (single isomer, unassigned) [Example 97], the IC50 in experiment [1] stood at 0.33 nM; in experiment [2], 0.34 nM; in experiment [3], 1190 nM; in experiment [4] it was 39.2 nM; in experiment [5], 79.4 nM.
Take `O=S1(=O)CCC[C@@H](n2cc(-c3ncnc4oc(-c5ccccc5)cc34)c(-c3ccc(F)cc3)n2)C1` (single isomer, unassigned) [Example 99]: the IC50 in experiment [1] was 5.7 nM; in experiment [2], 8.51 nM; in experiment [3], more than 20000 nM; in experiment [4] it was 822 nM; in experiment [5], 701 nM.
Consider `O=S1(=O)CCC[C@H](n2cc(-c3ncnc4oc(-c5ccccc5)cc34)c(-c3ccc(F)cc3)n2)C1` (single isomer, unassigned) [Example 100], for which the IC50 was found to be 2.76 nM in experiment [1]; 4.23 nM in experiment [2]; 13300 nM in experiment [3]; 407 nM in experiment [4]; 319 nM in experiment [5].
As to `CS(=O)(=O)N1CC[C@@H](n2cc(-c3ncnc4oc(-c5ccccc5)cc34)c(-c3ccc(F)cc3)n2)C1` (single isomer, unassigned) [Example 101], the IC50 in experiment [1] was 0.39 nM; in experiment [2], 0.27 nM; in experiment [3], 115 nM; in experiment [4] it was 8.69 nM; in experiment [5], 4.96 nM.
The like results for `CS(=O)(=O)N1CC[C@H](n2cc(-c3ncnc4oc(-c5ccccc5)cc34)c(-c3ccc(F)cc3)n2)C1` (single isomer, unassigned) [Example 102] were, in that order, 0.35 nM, 0.2 nM, 161 nM, 21.1 nM and 16.5 nM.
On the same counts, the results for `OCCCc1nc(-c2ccc(F)cc2)n(-c2ccnc3[nH]c(-c4ccccc4)cc23)n1` [Example 3, 3-[5-(4-Fluorophenyl)-1-(2-phenyl-1H-pyrrolo[2,3-b]pyridin-4-yl)-1H-1,2,4-triazol-3-yl]propan-1-ol] are 3.15 nM, 1.66 nM, 808 nM, 130 nM and 169 nM.
On the same counts, the results for `OCCCn1cc(-c2ccnc3[nH]c(-c4ccccc4)nc23)c(-c2ccc(F)cc2)n1` [Example 4, 3-[3-(4-Fluorophenyl)-4-(2-phenyl-3H-imidazo[4,5-b]pyridin-7-yl)-1H-pyrazol-1-yl]propan-1-ol] are 1.29 nM, 0.466 nM, 1400 nM, 32.1 nM and 36.4 nM.
With `OCCCn1cc(-c2ncnc3oc(-c4ccccc4)nc23)c(-c2ccc(F)cc2)n1` [Example 5, 3-[3-(4-Fluorophenyl)-4-(2-phenyl[1,3]oxazolo[5,4-d]pyrimidin-7-yl)-1H-pyrazol-1-yl]propan-1-ol], the IC50 was found to be 1.2 nM in experiment [1]; 0.45 nM in experiment [2]; 2430 nM in experiment [3]; 80.3 nM in experiment [4]; 90.6 nM in experiment [5].
The like results for `OCCCn1cc(-c2ncnc3[nH]c(-c4ccccc4)nc23)c(-c2ccc(F)cc2)n1` [Example 6, 3-[3-(4-Fluorophenyl)-4-(8-phenyl-9H-purin-6-yl)-1H-pyrazol-1-yl]propan-1-ol] were, in that order, 0.253 nM, 0.148 nM, 1100 nM, 4.4 nM and 5.81 nM.
For `OCCCn1cc(-c2ncnc3sc(-c4ccccc4)cc23)c(-c2ccc(F)cc2)n1` [Example 68, 3-[3-(4-fluorophenyl)-4-(6-phenylthieno[2,3-d]pyrimidin-4-yl)-1H-pyrazol-1-yl]propan-1-ol], the IC50 is 5.49 nM in experiment [1], 2.25 nM in experiment [2], 203 nM in experiment [4] and 723 nM in experiment [5].
Turning to `Fc1ccc(-c2nn(C3COC3)cc2-c2ncnc3oc(-c4ccccc4)nc23)cc1` [Example 80, 7-[3-(4-fluorophenyl)-1-(oxetan-3-yl)-1H-pyrazol-4-yl]-2-phenyl[1,3]oxazolo[5,4-d]pyrimidine], the IC50 stood at 6.38 nM in experiment [1], 3.25 nM in experiment [2], 143 nM in experiment [4] and 388 nM in experiment [5].
Regarding `Oc1ncccc1-c1cc2c(-c3cn([C@H]4C[C@@H](F)C4)nc3-c3ccc(F)cc3)ncnc2o1` [Example 287, 3-(4-{1-[(1s,3s)-3-fluorocyclobutyl]-3-(4-fluorophenyl)-1H-pyrazol-4-yl}furo[2,3-d]pyrimidin-6-yl)pyridin-2-ol], the IC50 in experiment [2] was found to be 0.213 nM; in experiment [3] it was 613 nM; in experiment [4] it was 8.63 nM; in experiment [5], 8.85 nM.
